In paper PMC5218480 (PLoS ONE, 2017):

Test system: MV-4-11 cells
Experiment: Gene expression microarray analysis (Affymetrix PrimeView) and GSEA
Assay type: cell-based, human
Set-up: RFU PODN (11730768_x_at) / Fold change /veh PODN (11730768_x_at) / RFU LINC00158 (11744669_a_at) / Fold change /veh LINC00158 (11744669_a_at) / RFU DUSP10 (11751237_a_at) / Fold change /veh DUSP10 (11751237_a_at) / RFU ID3 (11757404_x_at) / Fold change /veh ID3 (11757404_x_at) / RFU PLEKHG5 (11737974_s_at) / Fold change /veh PLEKHG5 (11737974_s_at) / RFU LRRC4B (11730491_at) / Fold change /veh LRRC4B (11730491_at) / RFU GIMAP4 (11747438_a_at) / Fold change /veh GIMAP4 (11747438_a_at) / RFU KRT8 (11758183_x_at) / Fold change /veh KRT8 (11758183_x_at) / RFU CNN1 (11734310_a_at) / Fold change /veh CNN1 (11734310_a_at) / RFU VPS37D (11726825_at) / Fold change /veh VPS37D (11726825_at) / RFU C10orf10 (11716522_x_at) / Fold change /veh C10orf10 (11716522_x_at) / RFU KIR2DL2 /// KIR2DL4 /// KIR2DL5A /// KIR2DL5B /// KIR2DS1 /// KIR2DS2 /// KIR2DS3 /// KIR2DS4 /// KIR3DL3 /// KIR3DL3 /// KIR3DS1 (11738374_at) / Fold change /veh KIR2DL2 /// KIR2DL4 /// KIR2DL5A /// KIR2DL5B /// KIR2DS1 /// KIR2DS2 /// KIR2DS3 /// KIR2DS4 /// KIR3DL3 /// KIR3DL3 /// KIR3DS1 (11738374_at) / RFU C1QL1 (11718748_at) / Fold change /veh C1QL1 (11718748_at) / RFU TMPRSS4 (11747572_a_at) / Fold change /veh TMPRSS4 (11747572_a_at) / RFU HAMP (11756126_x_at) / Fold change /veh HAMP (11756126_x_at) / RFU RNFT2 (11725882_a_at) / Fold change /veh RNFT2 (11725882_a_at) / RFU NR4A2 (11747474_a_at) / Fold change /veh NR4A2 (11747474_a_at) / RFU ABCC12 (11746883_a_at) / Fold change /veh ABCC12 (11746883_a_at) / RFU TMEM136 (11760407_x_at) / Fold change /veh TMEM136 (11760407_x_at) / RFU CLDN22 /// WWC2 (11732394_at) / Fold change /veh CLDN22 /// WWC2 (11732394_at) / RFU HLA-DPB1 (11760878_x_at) / Fold change /veh HLA-DPB1 (11760878_x_at) / RFU SPINT1 (11716480_a_at) / Fold change /veh SPINT1 (11716480_a_at) / RFU GAP43 (11754022_s_at) / Fold change /veh GAP43 (11754022_s_at) / RFU A4GNT (11735810_at) / Fold change /veh A4GNT (11735810_at) / RFU PRB3 (11715151_x_at) / Fold change /veh PRB3 (11715151_x_at) / RFU TUBB4B (11761932_at) / Fold change /veh TUBB4B (11761932_at) / RFU CAPN14 (11732068_a_at) / Fold change /veh CAPN14 (11732068_a_at) / RFU TMCC2 (11721928_a_at) / Fold change /veh TMCC2 (11721928_a_at) / RFU IRGQ (11745062_a_at) / Fold change /veh IRGQ (11745062_a_at) / RFU FAM174B (11720279_a_at) / Fold change /veh FAM174B (11720279_a_at) / RFU TMPRSS4 (11748680_a_at) / Fold change /veh TMPRSS4 (11748680_a_at) / RFU FAM212B (11763350_a_at) / Fold change /veh FAM212B (11763350_a_at) / RFU PLEKHG5 (11743358_a_at) / Fold change /veh PLEKHG5 (11743358_a_at) / RFU ZSCAN30 (11745921_a_at) / Fold change /veh ZSCAN30 (11745921_a_at) / RFU CMKLR1 (11741424_a_at) / Fold change /veh CMKLR1 (11741424_a_at) / RFU LOC101060620 /// MAPK8IP1 (11723275_at) / Fold change /veh LOC101060620 /// MAPK8IP1 (11723275_at) / RFU SPTSSB (11747773_x_at) / Fold change /veh SPTSSB (11747773_x_at) / RFU PRSS12 (11739890_at) / Fold change /veh PRSS12 (11739890_at) / RFU BIN1 (11741810_x_at) / Fold change /veh BIN1 (11741810_x_at) / RFU WNT11 (11732464_a_at) / Fold change /veh WNT11 (11732464_a_at) / RFU C10orf10 (11716521_a_at) / Fold change /veh C10orf10 (11716521_a_at) / RFU C5orf56 (11738089_at) / Fold change /veh C5orf56 (11738089_at) / RFU CYB561 (11721691_x_at) / Fold change /veh CYB561 (11721691_x_at) / RFU ANKRD19P (11752326_a_at) / Fold change /veh ANKRD19P (11752326_a_at) / RFU OR2T12 /// OR2T33 /// OR2T8 (11738714_s_at) / Fold change /veh OR2T12 /// OR2T33 /// OR2T8 (11738714_s_at) / RFU VCAN (11748164_a_at) / Fold change /veh VCAN (11748164_a_at) / RFU JSRP1 (11732532_at) / Fold change /veh JSRP1 (11732532_at) / RFU KRTAP10-11 (11738290_x_at) / Fold change /veh KRTAP10-11 (11738290_x_at) / RFU MYO3A (11730013_a_at) / Fold change /veh MYO3A (11730013_a_at) / RFU EBF3 (11725865_a_at) / Fold change /veh EBF3 (11725865_a_at) / RFU CAMK2N1 (11719241_x_at) / Fold change /veh CAMK2N1 (11719241_x_at) / RFU C5orf56 (11738088_a_at) / Fold change /veh C5orf56 (11738088_a_at) / RFU OLFML3 (11715873_a_at) / Fold change /veh OLFML3 (11715873_a_at) / RFU LOC100653217 /// NTM (11731650_a_at) / Fold change /veh LOC100653217 /// NTM (11731650_a_at) / RFU MAPK11 (11762145_a_at) / Fold change /veh MAPK11 (11762145_a_at) / RFU FIZ1 (11724087_x_at) / Fold change /veh FIZ1 (11724087_x_at) / RFU OASL (11726364_x_at) / Fold change /veh OASL (11726364_x_at) / RFU SOX15 (11748057_x_at) / Fold change /veh SOX15 (11748057_x_at) / RFU CD79A (11719716_a_at) / Fold change /veh CD79A (11719716_a_at) / RFU HIST1H1D (11736915_at) / Fold change /veh HIST1H1D (11736915_at) / RFU CASKIN2 (11723855_a_at) / Fold change /veh CASKIN2 (11723855_a_at) / RFU LOC730098 (11760151_x_at) / Fold change /veh LOC730098 (11760151_x_at) / RFU OR4N2 (11742367_at) / Fold change /veh OR4N2 (11742367_at) / RFU PRRT2 (11749266_a_at) / Fold change /veh PRRT2 (11749266_a_at) / RFU SNX32 (11753110_a_at) / Fold change /veh SNX32 (11753110_a_at) / RFU CDHR5 (11726645_a_at) / Fold change /veh CDHR5 (11726645_a_at) / RFU RCAN1 (11760418_a_at) / Fold change /veh RCAN1 (11760418_a_at) / RFU FAM167A (11723789_a_at) / Fold change /veh FAM167A (11723789_a_at) / RFU FAM26E (11764081_at) / Fold change /veh FAM26E (11764081_at) / RFU ISYNA1 (11749810_s_at) / Fold change /veh ISYNA1 (11749810_s_at) / RFU ACY1 (11761880_at) / Fold change /veh ACY1 (11761880_at) / RFU 11764098_at / Fold change /veh 11764098_at / RFU SAMD14 (11745864_x_at) / Fold change /veh SAMD14 (11745864_x_at) / RFU NPB (11741838_a_at) / Fold change /veh NPB (11741838_a_at) / RFU TMPRSS6 (11731388_a_at) / Fold change /veh TMPRSS6 (11731388_a_at) / RFU KRTAP10-2 (11738614_at) / Fold change /veh KRTAP10-2 (11738614_at) / RFU ARHGAP8 /// PRR5-ARHGAP8 (11727945_x_at) / Fold change /veh ARHGAP8 /// PRR5-ARHGAP8 (11727945_x_at) / RFU KRTAP5-7 /// NADSYN1 (11734609_at) / Fold change /veh KRTAP5-7 /// NADSYN1 (11734609_at) / RFU RASL12 (11751679_a_at) / Fold change /veh RASL12 (11751679_a_at) / RFU CDKN2B (11736163_a_at) / Fold change /veh CDKN2B (11736163_a_at) / RFU PRF1 (11729649_at) / Fold change /veh PRF1 (11729649_at) / RFU, ZNF638 /// ZNF638-IT1 / Fold change vs veh, ZNF638 /// ZNF638-IT1 / RFU, PANK3 / Fold change vs veh, PANK3 / RFU, SH3YL1 / Fold change vs veh, SH3YL1 / RFU, ZEB2 / Fold change vs veh, ZEB2 / RFU, NRIP1 / Fold change vs veh, NRIP1 / RFU, PTTG1IP / Fold change vs veh, PTTG1IP / RFU, CAPN2 / Fold change vs veh, CAPN2 / RFU, MED14 / Fold change vs veh, MED14 / RFU, SNORA58 / Fold change vs veh, SNORA58 / RFU, C1orf63 / Fold change vs veh, C1orf63 / RFU, LRRFIP1 / Fold change vs veh, LRRFIP1 / RFU, NDUFAF7 / Fold change vs veh, NDUFAF7 / RFU, SLC12A2 / Fold change vs veh, SLC12A2 / RFU, IBTK / Fold change vs veh, IBTK / RFU, ESF1 / Fold change vs veh, ESF1 / Fold change vs veh, TMEM50B / RFU, TAOK1 / Fold change vs veh, TAOK1 / RFU, ACBD3 / Fold change vs veh, ACBD3 / RFU, TMA16 / Fold change vs veh, TMA16 / RFU, RWDD3 / Fold change vs veh, RWDD3 / RFU, BCAT1 / Fold change vs veh, BCAT1 / RFU, EDEM3 / Fold change vs veh, EDEM3 / RFU, TMEM33 / Fold change vs veh, TMEM33 / RFU, WDR75 / Fold change vs veh, WDR75 / RFU, AHCTF1 / Fold change vs veh, AHCTF1 / RFU, TFRC / Fold change vs veh, TFRC / RFU, ZDHHC17 / Fold change vs veh, ZDHHC17 / RFU, NOM1 / Fold change vs veh, NOM1 / RFU, ARL8B / Fold change vs veh, ARL8B / RFU, ZBTB11 / Fold change vs veh, ZBTB11 / RFU, TAMM41 / Fold change vs veh, TAMM41 / RFU, KIAA1704 /// LOC100996395 / Fold change vs veh, KIAA1704 /// LOC100996395 / RFU, ING1 / Fold change vs veh, ING1 / RFU, TRMT61B / Fold change vs veh, TRMT61B / RFU, FUBP3 / Fold change vs veh, FUBP3 / RFU, TP53 / Fold change vs veh, TP53 / RFU, TNKS2 / Fold change vs veh, TNKS2 / RFU, ZFP14 / Fold change vs veh, ZFP14 / RFU, ACTR2 / Fold change vs veh, ACTR2 / RFU, PPP3R1 / Fold change vs veh, PPP3R1 / RFU, PIK3R1 / Fold change vs veh, PIK3R1 / RFU, HNRNPA1 / Fold change vs veh, HNRNPA1 / RFU, RNF170 / Fold change vs veh, RNF170 / RFU, ZNF28 / Fold change vs veh, ZNF28 / RFU, RNGTT / Fold change vs veh, RNGTT / RFU, OGT / Fold change vs veh, OGT / RFU, BRD1 / Fold change vs veh, BRD1 / RFU, MARS / Fold change vs veh, MARS / RFU, ZNF655 / Fold change vs veh, ZNF655 / RFU, FAHD1 / Fold change vs veh, FAHD1 / RFU, BDP1 / Fold change vs veh, BDP1 / RFU, LRRCC1 / Fold change vs veh, LRRCC1 / RFU, ARID1A / Fold change vs veh, ARID1A / RFU, ZNF146 / Fold change vs veh, ZNF146 / RFU, ZNF330 / Fold change vs veh, ZNF330 / RFU, GPN3 / Fold change vs veh, GPN3 / RFU, C9orf123 / Fold change vs veh, C9orf123 / RFU, N4BP2L2 / Fold change vs veh, N4BP2L2 / RFU, ARFIP1 / Fold change vs veh, ARFIP1 / RFU, FAM179B / Fold change vs veh, FAM179B / RFU, BCL10 / Fold change vs veh, BCL10 / RFU, UHRF1BP1L / Fold change vs veh, UHRF1BP1L / RFU, BET1 / Fold change vs veh, BET1 / RFU, CNOT2 / Fold change vs veh, CNOT2 / RFU, ZNF268 / Fold change vs veh, ZNF268 / Fold change vs veh, ZNF507 / RFU, DGCR2 / Fold change vs veh, DGCR2 / RFU, WDSUB1 / Fold change vs veh, WDSUB1 / Fold change vs veh, HSP90B1 /// MIR3652 / RFU, ADSS / Fold change vs veh, ADSS / RFU, GK / Fold change vs veh, GK / RFU, ZNF148 / Fold change vs veh, ZNF148 / RFU, TAF9 / Fold change vs veh, TAF9 / RFU, SLC1A5 / Fold change vs veh, SLC1A5 / RFU, SLMO2 / Fold change vs veh, SLMO2 / RFU, ABCC4 / Fold change vs veh, ABCC4 / RFU, LOC101060439 /// RAP1B / Fold change vs veh, LOC101060439 /// RAP1B / RFU, RFX7 / Fold change vs veh, RFX7 / RFU, GTPBP10 / Fold change vs veh, GTPBP10 / RFU, CNEP1R1 / Fold change vs veh, CNEP1R1 / RFU, BIVM-ERCC5 /// ERCC5 / Fold change vs veh, BIVM-ERCC5 /// ERCC5 / RFU, ILF3 / Fold change vs veh, ILF3 / RFU 11762660_at / Fold change /veh 11762660_at / RFU VCAN (11757783_s_at) / Fold change /veh VCAN (11757783_s_at) / RFU DDX43 (11728927_at) / Fold change /veh DDX43 (11728927_at) / RFU KRT8 (11758188_x_at) / Fold change /veh KRT8 (11758188_x_at) / RFU NKD1 (11759106_at) / Fold change /veh NKD1 (11759106_at) / RFU SRD5A1 (11742802_a_at) / Fold change /veh SRD5A1 (11742802_a_at) / RFU TPSAB1 /// TPSB2 (11721975_s_at) / Fold change /veh TPSAB1 /// TPSB2 (11721975_s_at) / RFU GSTM3 (11746129_a_at) / Fold change /veh GSTM3 (11746129_a_at) / RFU IL23R (11737362_x_at) / Fold change /veh IL23R (11737362_x_at) / RFU TMEM51 (11727254_a_at) / Fold change /veh TMEM51 (11727254_a_at) / RFU PIWIL2 (11732686_x_at) / Fold change /veh PIWIL2 (11732686_x_at) / RFU ORM1 (11744905_x_at) / Fold change /veh ORM1 (11744905_x_at) / RFU CCDC152 (11743942_at) / Fold change /veh CCDC152 (11743942_at) / RFU ECM1 (11717891_a_at) / Fold change /veh ECM1 (11717891_a_at) / RFU IL23R (11748794_a_at) / Fold change /veh IL23R (11748794_a_at) / RFU TNFAIP8L3 (11732012_x_at) / Fold change /veh TNFAIP8L3 (11732012_x_at) / RFU MBOAT4 (11741988_at) / Fold change /veh MBOAT4 (11741988_at) / RFU 11764193_at / Fold change /veh 11764193_at / RFU TMEM53 (11763286_at) / Fold change /veh TMEM53 (11763286_at) / RFU MAGEB2 (11727129_at) / Fold change /veh MAGEB2 (11727129_at) / RFU TMEM200A (11744735_a_at) / Fold change /veh TMEM200A (11744735_a_at) / RFU CCDC152 (11751479_a_at) / Fold change /veh CCDC152 (11751479_a_at) / RFU FAM211A (11726209_a_at) / Fold change /veh FAM211A (11726209_a_at) / RFU RGS16 (11746705_a_at) / Fold change /veh RGS16 (11746705_a_at) / RFU VCAN (11755009_s_at) / Fold change /veh VCAN (11755009_s_at) / RFU RHOB (11743442_s_at) / Fold change /veh RHOB (11743442_s_at) / RFU RGS16 (11720943_a_at) / Fold change /veh RGS16 (11720943_a_at) / RFU RGS16 (11720944_at) / Fold change /veh RGS16 (11720944_at) / RFU, VPS4B / Fold change vs veh, VPS4B / RFU, CREB1 / Fold change vs veh, CREB1 / RFU, DNAJC13 / Fold change vs veh, DNAJC13 / RFU, GNAQ / Fold change vs veh, GNAQ / RFU, CDK5R1 / Fold change vs veh, CDK5R1 / RFU, ZRANB3 / Fold change vs veh, ZRANB3 / RFU, CUL4A / Fold change vs veh, CUL4A / RFU, CCNY / Fold change vs veh, CCNY / RFU, UFL1 / Fold change vs veh, UFL1 / RFU, COG3 / Fold change vs veh, COG3 / RFU, DIAPH2 / Fold change vs veh, DIAPH2 / RFU, SKA2 / Fold change vs veh, SKA2 / RFU, AFF3 / Fold change vs veh, AFF3 / RFU, LMF1 / Fold change vs veh, LMF1 / RFU, IPO11 / Fold change vs veh, IPO11 / RFU, DFFB / Fold change vs veh, DFFB / RFU, FOXP1 / Fold change vs veh, FOXP1 / RFU, CARD8 / Fold change vs veh, CARD8 / RFU, STRN3 / Fold change vs veh, STRN3 / RFU, ADK / Fold change vs veh, ADK / RFU, RASSF2 / Fold change vs veh, RASSF2 / RFU, WIPF1 / Fold change vs veh, WIPF1 / RFU, LARP1B / Fold change vs veh, LARP1B / RFU, RASA1 / Fold change vs veh, RASA1 / RFU, RB1 / Fold change vs veh, RB1 / RFU, PPFIA1 / Fold change vs veh, PPFIA1 / RFU, MAT2A / Fold change vs veh, MAT2A / RFU, CCT5 / Fold change vs veh, CCT5 / RFU, WDR92 / Fold change vs veh, WDR92 / RFU, CUX1 / Fold change vs veh, CUX1 / RFU, TTC7A / Fold change vs veh, TTC7A / RFU, TMEM135 / Fold change vs veh, TMEM135 / RFU, DEPTOR / Fold change vs veh, DEPTOR / RFU, CPM / Fold change vs veh, CPM / RFU, DNAJB6 / Fold change vs veh, DNAJB6 / RFU, CACNA2D3 / Fold change vs veh, CACNA2D3 / RFU, DTX4 / Fold change vs veh, DTX4 / RFU, TFCP2 / Fold change vs veh, TFCP2 / RFU, GMCL1 /// GMCL1P1 / Fold change vs veh, GMCL1 /// GMCL1P1 / RFU, AEBP2 / Fold change vs veh, AEBP2 / RFU, SNHG1 /// SNORD22 /// SNORD25 /// SNORD26 /// SNORD27 /// SNORD28 /// SNORD29 /// SNORD31 / Fold change vs veh, SNHG1 /// SNORD22 /// SNORD25 /// SNORD26 /// SNORD27 /// SNORD28 /// SNORD29 /// SNORD31 / Fold change (Aza/veh), C12orf56 (ProbeSet 11735607_a_at) / Fold change (ACY-1035/veh), C12orf56 (ProbeSet 11735607_a_at) / Fold change (Aza/veh), FGFR1OP (ProbeSet 11751329_s_at) / Fold change (ACY-1035/veh), FGFR1OP (ProbeSet 11751329_s_at) / Fold change (Aza/veh), VPS36 (ProbeSet 11739960_a_at) / Fold change (ACY-1035/veh), VPS36 (ProbeSet 11739960_a_at) / RFU SYPL1 (11715823_x_at) / Fold change /veh SYPL1 (11715823_x_at) / RFU IGFBP7 (11715501_s_at) / Fold change /veh IGFBP7 (11715501_s_at) / RFU REEP3 (11722064_at) / Fold change /veh REEP3 (11722064_at) / RFU IGLL1 (11728026_x_at) / Fold change /veh IGLL1 (11728026_x_at): dose or concentration left out as unconfirmed
Conditions: ProbeSet 11718701_a_at; LIST B

SMILES: Nc1ccc(-c2cccs2)cc1NC(=O)c1ccc2c(c1)cc(C1CC1)n2CCN1CCOCC1 [ACY-1035]
- Fold change vs veh, ARFIP1: 0.86
